Data from US20050255504A1, “Method of detecting an increased susceptibility to breast cancer” (priority 2004, published 2005).
Residue numbers refer to the chain shown, from its start.

T1: COMT (Homo sapiens, UniProt P21964)
T1 construct: made in house; host or cells: Escherichia coli DH5alphaF'Iq
T1 sequence (P21964 1-221 isoform P21964-2): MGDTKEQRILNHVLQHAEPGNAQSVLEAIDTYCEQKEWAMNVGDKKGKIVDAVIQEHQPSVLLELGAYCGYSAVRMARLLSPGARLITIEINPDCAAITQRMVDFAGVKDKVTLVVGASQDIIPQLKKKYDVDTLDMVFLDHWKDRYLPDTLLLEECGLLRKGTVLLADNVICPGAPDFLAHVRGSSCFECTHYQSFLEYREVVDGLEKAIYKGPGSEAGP

B1: Variant 4: recombinant CYP1B1 variant: 48Arg, 119Ala, 432Val, 453Ser (protein, UniProt Q16678 1-543, looked up, variant N453S)
Cytochrome P450 1B1: MGTSLSPNDPWPLNPLSIQQTTLLLLLSVLATVHVGQRLLRQRRRQLRSAPPGPFAWPLIGNAAAVGQAAHLSFARLARRYGDVFQIRLGSCPIVVLNGERAIHQALVQQGSAFADRPAFASFRVVSGGRSMAFGHYSEHWKVQRRAAHSMMRNFFTRQPRSRQVLEGHVLSEARELVALLVRGSADGAFLDPRPLTVVAVANVMSAVCFGCRYSHDDPEFRELLSHNEEFGRTVGAGSLVDVMPWLQYFPNPVRTVFREFEQLNRNFSNFILDKFLRHCESLRPGAAPRDMMDAFILSAEKKAAGDSHGGGARLDLENVPATITDIFGASQDTLSTALQWLLLLFTRYPDVQTRVQAELDQVVGRDRLPCMGDQPNLPYVLAFLYEAMRFSSFVPVTIPHATTANTSVLGYHIPKDTVVFVNQWSVNHDPLKWPNPENFDPARFLDKDGLISKDLTSRVMIFSVGKRRCIGEELSKMQLFLFISILAHQCDFRANPNEPAKMNFSYGLTIKPKSFKVNVTLRESMELLDSAVQNLQAKETCQ
B2: Variant 1: recombinant CYP1B1 variant: 48Gly, 119Ala, 432Val, 453Asn (protein, UniProt Q16678 1-543, looked up, variant R48G)
Cytochrome P450 1B1: B1 Cytochrome P450 1B1 with R48G, S453N
B3: Variant 2: recombinant CYP1B1 variant: 48Arg, 119Ser, 432Val, 453Asn (protein, UniProt Q16678 1-543, looked up, variant A119S)
Cytochrome P450 1B1: B1 Cytochrome P450 1B1 with A119S, S453N
B4: Wild type: purified recombinant His-tagged wild type CYP1B1: 48Arg, 119Ala, 432Val, 453Asn (protein)
chain: HHHHHHLLSVLATVHVGQRLLRQRRRQLRSAPPGPFAWPLIGNAAAVGQAAHLSFARLARRYGDVFQIRLGSCPIVVLNGERAIHQALVQQGSAFADRPAFASFRVVSGGRSMAFGHYSEHWKVQRRAAHSMMRNFFTRQPRSRQVLEGHVLSEARELVALLVRGSADGAFLDPRPLTVVAVANVMSAVCFGCRYSHDDPEFRELLSHNEEFGRTVGAGSLVDVMPWLQYFPNPVRTVFREFEQLNRNFSNFILDKFLRHCESLRPGAAPRDMMDAFILSAEKKAAGDSHGGGARLDLENVPATITDIFGASQDTLSTALQWLLLLFTRYPDVQTRVQAELDQVVGRDRLPCMGDQPNLPYVLAFLYEAMRFSSFVPVTIPHATTANTSVLGYHIPKDTVVFVNQWSVNHDPLKWPNPENFDPARFLDKDGLINKDLTSRVMIFSVGKRRCIGEELSKMQLFLFISILAHQCDFRANPNEPAKMNFSYGLTIKPKSFKVNVTLRESMELLDSAVQNLQAKETCQ

What was measured:
COMT = target: T1, COMT; experiment: Assay of COMT activity: methylation of catechol estrogens by purified recombinant His-COMT; type: biochemical; conditions: for pattern of the rates of methylation versus substrate concentration: substrate of COMT, FIG. 9; for formation as product of COMT methylation of 4-OHE2 / 4-OHE1: GC/MS detection of product
Experimental: Assay of COMT Activity. Purified recombinant His-COMT (300 pmol) was reconstituted in 0.5 ml of 100 mM KPO4, pH 7.4, containing 5 mM MgCl2, 10 mM (β-mercaptoethanol, and 200 μM SAM. Reactions were initiated by adding varying concentrations of each individual catechol estrogen (2, 3, 6, 9, 12, 15, 20, 40, 60, 80, and 100 μM). Blanks contained all compounds except SAM. Reactions proceeded for 10 min at 37° C. with gentle shaking and then were terminated by addition of 2 ml CH2Cl2. To determine COMT activity in breast cancer cells, ZR-75 and MCF-7 cells were harvested at confluency and homogenized in 100 mM KP04, pH 7.4, 5 mM MgCl2, 10 mM β-mercaptoethanol. Following ultracentrifugation of the cell homogenate (110,000 g, 30 min, 4° C.), the supernatant cytosol was divided into aliquots for ICELISA, protein determination (BCA assay; Pierce, Rockford, Ill.), and COMT assay. The latter was carried out in the presence of 200 μM SAM and 100 μM catechol estrogen for 20 min at 37° C. and then terminated by addition of CH2Cl2. The concentration of endogenous catechol and methoxy estrogens was below the limit of detection by gas chromatography/mass spectrometry.
Extraction and Gas Chromatography/Mass Spectrometry Analysis of Catechol Estrogens. A deuterated internal standard (100 μl of 8 mg/liter E2-d4 in methanol) was added and all estrogens extracted into the CH2Cl2 by vortex mixing for 30 s. 1.5 ml of the CH2Cl2 fraction was evaporated to dryness under air and volatile TMS derivatives prepared by heating the residue with 100 μl of 50% NO-bis(trimethylsilyl)trifluoroacetamide/1% trimethyl chlorosilane in acetonitrile at 56° C. for 30 min. The TMS derivatives of the estrogen metabolites were separated by gas chromatography (H—P 5890, Hewlett-Packard, Wilmington, Del.) on a 5% phenyl methyl silicone stationary phase fused silica capillary column (30 m×0.2 mm×0.5 μm film, HP5; Hewlett-Packard). Helium carrier gas was used at a flow of 1 ml/min. The injector was operated at 250° C., with 2 μl injected in the splitless mode, with a purge (60 ml/min helium) time of 0.6 min. The oven temperature was held at 180° C. for 0.5 min, then raised at 6° C./min to 250° C. where it was held for 17 min, then raised to 300° C. at 8° C./min to give a total run time of 35.42 min. This program permitted adequate separation of a wide range of estrogen metabolites. Retention times (in min) for the TMS derivatives were E1 20.13, E2 and E2-d4 21.89, 4-MeOE1 23.52, 2-MeO-3-MeOE1 (underivatized) 23.75, 2-OH-3-MeOE1 24.87, 2-MeOE1 25.2, 4-MeOE2 25.78, 2-OHE1 and 2-MeO-3-MeOE2 26.19, 2-OH-3-MeOE2 26.9, 2-MeOE2 27.18, 4-OHE1 27.27, 6a-OHE2 27.29, 2-OHE2 27.44, 4-OHE2 28.06, E3 28.38. The E1 mass spectrometer (H—P 5970) was operated in the selected ion monitoring mode from 18 to 30 min. Ions monitored were TMS-E1 342, 257, 343; TMS2-E2-d4 420, 421, 287; TMS2-E2 416, 417, 285; TMS-4-MeOE1, TMS-2-OH-3-MeOE1, TMS-2-MeOE1 and TMS-3-MeO-4-OHE1 372, 373, 342; 2-MeO-3-MeOE1 314, 315, 229; TMS2-4-MeOE2, TMS2-2-OH-3-MeOE2, TMS2-2-MeOE2 and TMS2-3-MeO-4-OHE2 446, 447, 315; TMS2-2-OHE1 430, 431, 432; TMS-2-MeO-3-MeOE2 388, 389, 257; TMS2-4-OHE1 430, 431, 345; TMS2-6α-OHE2 414, 283, 309; TMS3-2-OHE2 and TMS3-4-OHE2 504, 505, 373; TMS3-E3 504, 505, 311 (FIG. 7). The instrument was calibrated by simultaneous preparation of an 11-point calibration over the range 0-22 nmol/tube of each compound. Sensitivity was determined to be between 0.02 and 0.04 nmol/tube (400-800 finol on column) for the various compounds. […] Absolute extraction efficiency for E2,2-OH-E2 and 4-OH-E2 at 3.5 nmol/tube was 119, 96, and 107% assessed by comparison to injections of spiked solvent samples onto the gas chromatograph. Internal standard added prior to extraction compensated for deviation from 100% recovery for all investigated compounds.
Statistical Analysis. […]

renal DNA = conditions: hamster, in vivo; cited from earlier work
CYP1B1 = experiment: Assay of CYP1B1 E2 hydroxylation activity (purified recombinant enzyme, GC/MS of products); type: biochemical, human; conditions: E2 16a-hydroxylation
Experimental: Assay of CYP1B1 E2 Hydroxylation Activity. […] An NADPH-generating system consisting of 5 mM glucose 6-phosphate and 0.5 U of glucose-6-phosphate dehydrogenase/ml was added and reactions initiated by adding NADP+ to a final concentration of 0.5 mM. Reactions proceeded for 10 min at 37° C. with gentle shaking and then were terminated by addition of 2 ml CH2Cl2. Extraction and Gas Chromatography/Mass Spectrometry Analysis of E2 and Metabolites. […] Hewlett-Packard). Helium carrier gas was used at a flow of 1 ml/min. The injector was operated at 250° C., with […] injected in the splitless mode, with a purge (60 ml/min helium) time of 0.6 min. The oven temperature was held at 180° C. for 0.5 min, then raised at 6° C./min to 250° C. where it was held for 17 min, then raised to 300° C. at 8° C./min to give a total run time of 35.42 min. […] The E1 mass spectrometer (H-P 5970) was operated in the selected ion monitoring mode from 18 to 34 min. […] TMS2-E2 416, 285, 326; […]2 504, 373, 325; TMS3-16_-OH-E2 345, 311, 504. […] Internal standard added prior to extraction compensated for deviation from 100% recovery. Statistical Analysis. Kinetic parameters (Km and kcat) were determined by nonlinear regression analysis using the computer program GraphPad PRISM (San Diego, Calif.).

| Molecule | pattern of the rates of methylation versus substrate concentration (COMT) | levels of the oxidized base 8-hydroxy-deoxyguanosine in renal DNA (renal DNA) | 16a-OH-Estradiol kcat (CYP1B1) | further results |
| --- | --- | --- | --- | --- |
| C[C@]12CC[C@@H]3c4cc(O)c(O)cc4CC[C@H]3[C@@H]1CCC2=O [Variant 2-OHE1] | typical hyperbolic patterns |  |  |  |
| C[C@]12CC[C@@H]3c4cc(O)c(O)cc4CC[C@H]3[C@@H]1CC[C@@H]2O [Variant 2-OHE2] | typical hyperbolic patterns | did not cause oxidative DNA damage |  |  |
| COc1ccc2c(c1O)CC[C@@H]1[C@@H]2CC[C@]2(C)C(=O)CC[C@@H]12 [Variant 3-MeO-4-OHE1] |  |  |  | formation as product of COMT methylation of 4-OHE2 / 4-OHE1 (COMT): not observed |
| COc1ccc2c(c1O)CC[C@@H]1[C@@H]2CC[C@]2(C)[C@@H](O)CC[C@@H]12 [Variant 3-MeO-4-OHE2] |  |  |  | formation as product of COMT methylation of 4-OHE2 / 4-OHE1 (COMT): not observed |
| C[C@]12CC[C@@H]3c4ccc(O)c(O)c4CC[C@H]3[C@@H]1CCC2=O [Variant 4-OHE1] | sigmoid curve pattern | significantly increased |  |  |
| C[C@]12CC[C@@H]3c4ccc(O)c(O)c4CC[C@H]3[C@@H]1CC[C@@H]2O [Variant 4-OHE2] | sigmoid curve pattern | significantly increased |  |  |
| B1 |  |  | 0.0065 ± 0.00033 s⁻¹ |  |
| B2 |  |  | 0.00933 ± 0.00067 s⁻¹ |  |
| B3 |  |  | 0.00567 ± 0.00033 s⁻¹ |  |
| B4 |  |  | 0.005 ± 0.00033 s⁻¹ | 16a-OH-Estradiol kcat (CYP1B1; listed as Wild type CYP1B1): 0.005 ± 0.00033 s⁻¹; 16a-OH-Estradiol kcat (CYP1B1; listed as wild type CYP1B1): 0.005 ± 0.00033 s⁻¹ |
